According to ChEMBL document CHEMBL1275279, “Synthesis, biological assay in vitro and molecular docking studies of new imidazopyrazinone derivatives as potential dipeptidyl peptidase IV inhibitors” (Eur J Med Chem, 2010):

Biological target: Dipeptidyl peptidase 4 (Homo sapiens) (UniProt P27487)
Sequence (P27487 whole entry, looked up): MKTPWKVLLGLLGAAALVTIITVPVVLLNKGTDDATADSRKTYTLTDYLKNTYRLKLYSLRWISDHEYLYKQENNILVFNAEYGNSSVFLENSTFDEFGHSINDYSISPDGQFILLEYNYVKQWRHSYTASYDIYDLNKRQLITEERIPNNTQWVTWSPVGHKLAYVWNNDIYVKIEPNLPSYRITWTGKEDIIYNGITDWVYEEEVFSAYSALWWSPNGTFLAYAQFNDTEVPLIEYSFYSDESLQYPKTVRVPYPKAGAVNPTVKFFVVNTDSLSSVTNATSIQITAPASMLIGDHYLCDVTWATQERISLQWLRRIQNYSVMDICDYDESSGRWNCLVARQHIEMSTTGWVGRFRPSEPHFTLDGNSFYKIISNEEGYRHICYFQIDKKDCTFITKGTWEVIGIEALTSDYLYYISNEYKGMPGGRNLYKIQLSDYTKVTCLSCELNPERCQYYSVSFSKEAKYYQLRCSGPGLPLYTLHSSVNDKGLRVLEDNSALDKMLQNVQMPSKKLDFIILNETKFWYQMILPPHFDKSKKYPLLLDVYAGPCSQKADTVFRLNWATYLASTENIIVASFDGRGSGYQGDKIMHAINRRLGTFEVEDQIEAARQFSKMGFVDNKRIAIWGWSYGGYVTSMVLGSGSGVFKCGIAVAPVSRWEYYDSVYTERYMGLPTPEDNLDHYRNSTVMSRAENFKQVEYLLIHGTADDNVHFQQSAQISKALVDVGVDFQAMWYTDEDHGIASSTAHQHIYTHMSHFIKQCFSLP
Description: Inhibition of human seminal fluid DPP4

IC50: 78 nM
Structure (SMILES): NC(=O)c1cccc(CN2CC3CN(C(=O)C[C@H](N)Cc4cc(F)c(F)cc4F)CCN3C2=O)c1 (stereo partly specified)
